Results reported in patent US6573254B1, “Method for the stimulation of sperm production and gonadal development in animals” (University of Maryland, priority 1998, dated 2003).

Experiments:
[1] = test system: chicks; details: ICV administration to chicks; cited from earlier work
[2] = test system: broiler chicks; experiment: 0.2% SMZ in standard broiler ration, one to four weeks of age, continuous light versus LD 8:16; type: in vivo, chicken; details: 1-4 weeks of age
Protocol: FIG. 9 depicts a bar graph showing testes weight following 0.2% SMZ (1-4 weeks of age) in chicks exposed to LD 24:0 or LD 8:16.
In a further study using broiler chicks, SMZ at 0.2% was added to a standard broiler ration and fed to chicks from one to four weeks of age. One group was raised under continuous light while a second group was exposed to a photoperiod of LD 8:16. […] Although food intake was not measured in this experiment, body weight was taken at the beginning and end of the study. […] Sulfamethazine has a stimulatory effect upon testes growth when chicks are exposed to a long photoperiod. One possible interpretation is that SMZ appears to facilitate or amplify the stimulatory effect of long-day light on gonadal development in male chicks.

[3] = test system: male broiler chicks; experiment: 0.2% SMZ in starter ration during genetic selection phase of broilerization, from one week of age; type: in vivo, chicken
From the text: FIG. 4 depicts a bar graph showing the testes response resulting from the “genetic selection” phase of broilerization (see FIG. 1) plus 0.2% sulfamethazine (SMZ) added to a standard starter ration at one week of age.
FIGS. 5A and 5B depict graphs showing weekly levels of plasma luteinizing hormone (LH; 5A) and follicle stimulating hormone (FSH; 5B) in male broiler chicks fed a diet with 0.2% SMZ beginning at one week of age (*=p[…]0.05).
(§1) Blood samples were taken starting at day of SMZ administration and weekly following initiation of the treatment.

[4] = test system: broiler chicks; details: cited from earlier work
[5] = test system: broiler breeders; experiment: 0.2% SMZ in grower diet during photoperiodic phase of broilerization (weeks 20-28, LD 14:10); type: in vivo, chicken; details: p≦0.05
From the text: FIGS. 7A and 7B depict bar graphs showing testis weight response (7A) and plasma LH (7B) resulting from the “photoperiodic” phase of broilerization plus 0.2% SMZ added to a grower diet from 20 to 28 weeks of age. Testes and blood were sampled at 28 weeks of age. Photoperiod=LD 14:10.
FIGS. 8A and 8B show plasma FSH (8A) and testosterone (8B) resulting from blood samples taken as described with respect to FIGS. 7A and 7B.

[6] = test system: male broiler chicks; experiment: Daily plasma LH immediately following dietary administration of 0.2% SMZ, from one week of age; type: in vivo, chicken; details: 0.2% SMZ diet from one week of age, FIG. 6
From the text: FIG. 6 depicts a graph showing daily levels of LH immediately following dietary administration of 0.2% SMZ, beginning at one week of age (*=p<0.05).
as §1

Compound | growth of the testes [1] | testes growth ([2]; continuous light (LD 24:0), p≦0.05, FIG. 9) | progonadal effects (testes weight) ([2]; short photoperiod LD 8:16, FIG. 9) | body weight, long-day versus short-day SMZ treated groups ([2]; weighed at beginning and end of study) | plasma luteinizing hormone (LH), weekly levels ([3]; 0.2% SMZ diet from one week of age, weekly blood samples, FIG. 5A) | plasma follicle stimulating hormone (FSH), weekly levels ([3]; 0.2% SMZ diet from one week of age, weekly blood samples, FIG. 5B) | rate of testes growth ([3]; 0.2% SMZ in starter ration from one week of age, FIG. 4) | semen production ([3]; 0.2% SMZ in starter ration, by nine weeks of age) | plasma gonadotropins ([4]; broiler chicks) | testes development ([4]; broiler chicks) | thyroid hormone ([4]; broiler chicks) | number of immuno-stained neuropeptide Y (NPY) neurons ([4]; broiler chicks, mediobasal hypothalamus and infundibular nucleus (IN)) | comb coloration (side effect) ([4]; chronic use of SMZ) | size of comb and testes (side effect) ([4]; chronic use of SMZ) | plasma LH ([5]; 0.2% SMZ weeks 20-28, LD 14:10, blood at week 28, FIG. 7B) | plasma FSH ([5]; 0.2% SMZ weeks 20-28, LD 14:10, blood at week 28, FIG. 8A) | plasma testosterone ([5]; 0.2% SMZ weeks 20-28, LD 14:10, blood at week 28, FIG. 8B) | testis weight versus controls ([5]; 0.2% SMZ weeks 20-28, LD 14:10, sampled at 28 weeks, FIG. 7A) | time until plasma LH was significantly elevated after consuming feed containing SMZ [6] [h]
neuropeptide Y [NPY] | stimulates | – | – | – | – | – | – | – | – | – | – | – | – | – | – | – | – | – | –
Cc1cc(C)nc(NS(=O)(=O)c2ccc(N)cc2)n1 [SMZ, Sulfamethazine] | – | significantly elevated | markedly attenuated | No significant difference | significantly increased | significantly increased | significantly increased | produced viable semen | increases | significantly increases | transiently suppresses | increases | marked red coloration of the comb | increased size of both comb and testes | significantly elevated | significantly elevated | significantly elevated | significantly heavier than controls | ≤ 48
